Where two headings read alike, the source gives them in different places.
How the values were obtained:
Assay type in all cases: biochemical
PGAM-B = PGAM-B (Homo sapiens, UniProt P18669); assay: Effect of potassium tetrathionate on PGAM-B standard, automatic assay method (NADH decrease rate assay); conditions: for activity at 1900 µM / activity at 3800 µM / activity at 7600 µM: 5 min, PGAM-B standard (pooled serum base), 5 min reaction, read-out: PGAM-B activity relative to 0 mM potassium tetrathionate (=100); for activity at 1900 µM: final concentration 1.9 mM; for activity at 3800 µM: final concentration 3.8 mM; for activity at 7600 µM: final concentration 7.6 mM
PGAM-B, sequence (P18669 whole entry): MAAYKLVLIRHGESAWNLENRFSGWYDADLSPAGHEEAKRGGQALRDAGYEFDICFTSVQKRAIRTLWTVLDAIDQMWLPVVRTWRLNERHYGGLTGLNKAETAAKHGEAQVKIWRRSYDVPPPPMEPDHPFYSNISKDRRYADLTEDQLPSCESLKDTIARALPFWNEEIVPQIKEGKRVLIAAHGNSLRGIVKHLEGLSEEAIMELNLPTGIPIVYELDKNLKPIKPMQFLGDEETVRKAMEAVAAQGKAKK
Excerpt: (§1) Namely, 3-phosphoglycerate (Glycerate-3-P) is converted into 2-phosphoglycerate (Glycerate-2-P) by PGAM-B in the presence of 2,3-bisphosphoglycerate (Glycerate-2,3-P2) and the resulting product is converted into PEP and H2 O by enolase. Then, PEP is converted into pyruvate and ATP by pyruvate kinase (PK) in the presence of ADP, and lactate dehydrogenase (LDH) is acted on pyruvate thus obtained in the presence of NADH to conduct the rate assay of the decrease of NADH.
(§2) Effect of potassium tetrathionate on PGAM-B and PGAM-M was examined by an automatic assay method.
(§3) Standard preparations of the B-type and M-type isozymes (pooled serum base) were used as samples. These were diluted 1/1 to 1/8 with physiological saline to serve as samples. To the thus prepared samples were added potassium tetrathionate of various concentrations. After the reaction was carried out for 5 minutes, the quantity of the B-type and M-type PGAMs were determined by the automatic assay method.
(§4) The quantity of PGAM-B and PGAM-M were respectively determined using the reagent of Example 2 by the automatic assay method, and the results shown in Table 2 below were obtained.
(§5) Potassium tetrathionate (molecular weight of 302.4) was added to and dissolved in the PGAM activity assay reagent (R-1) so as to give a concentration of 2.25 mM (final concentration of 1.9 mM) (15 mg of potassium tetrathionate was dissolved in 22 ml of the R-1 reagent) and the M-type isozyme was inactivated to prepare a B-type PGAM activity assay reagent.
(§6) Five μl of a serum sample was combined with 250 μl of the solution of Reagent 1 (R-1) in which potassium tetrathionate was dissolved, and the mixture was allowed to stand for 5 minutes. During this period, the M-type (and MB-type) PGAM was inactivated and inhibited, and then the B-type PGAM activity was determined using Reagent 2 (R-2).
(§7) The reaction was initiated (substrate start) by adding 41 μl of Reagent 2 (R-2) because it contained glycerate-3-phosphate (substrate). The assay was started about 1.5 minutes after the addition of Reagent 2.
(§8) The assay was carried out using Hitachi 7150 model automatic analyzer with setting the assay code to RATE-A: 32-39 and the measuring temperature to 37° C. The decrease in absorbance A 340 nm associated with the decrease of NADH was measured for about 1.5 minutes. It should be noted that the assay was carried out at the secondary wavelength of 405 nm.
(§9) One unit of the enzyme (1 U: 1 unit) was defined as the amount of the enzyme that reduces 1 μmol of NADH for 1 minute at 37° C. Actual measured values were calculated by multiplying the rate assay value by a calibrating factor (K FACTOR).

PGAM-M = PGAM-M (Homo sapiens, UniProt P15259); assay: Effect of potassium tetrathionate on PGAM-M standard, automatic assay method (NADH decrease rate assay)
PGAM-M, sequence (P15259 whole entry): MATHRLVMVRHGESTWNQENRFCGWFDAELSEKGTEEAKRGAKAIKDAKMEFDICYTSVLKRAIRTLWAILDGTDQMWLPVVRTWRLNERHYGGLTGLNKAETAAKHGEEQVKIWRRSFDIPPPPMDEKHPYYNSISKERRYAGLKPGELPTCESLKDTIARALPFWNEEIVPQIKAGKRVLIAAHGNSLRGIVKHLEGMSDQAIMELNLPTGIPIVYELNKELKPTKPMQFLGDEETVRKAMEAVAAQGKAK
Excerpt: as §1, §2, §3, §4, §5, §6, §7, §8, §9

B-type isozyme (PGAM-BB) = assay: Inhibition test using purified PGAM isozymes, B-type; conditions: treatment with tetrathionic acid as PGAM inhibitor
Excerpt: (§10) The assay method according to the present invention comprises treating a blood sample such as serum with a PGAM inhibitor to inactivate a specific isozyme, and then determining residual PGAM activity. For example, when tetrathionic acid is used as the PGAM inhibitor, almost 100% of M-type isozyme activity and about 50% of MB-type isozyme activity are lost, while B-type isozyme activity is hardly lost. Therefore, the B-type isozyme can be separately quantified by adding tetrathionic acid to serum to inactivate the M-type isozyme and measuring residual PGAM activity.
(§11) Incidently, according to the inhibition test using purified PGAM isozymes, only 50% of MB-type isozyme activity is lost by the treatment with tetrathionic acid, and 50% of the activity remains. However, since most of PGAM activities in normal serum and cerebral tissues are attributed to the B-type isozyme, residual activity of the MB-type isozyme can be practically disregarded in the case of diagnosis of cerebral apoplexy in a biological sample.

M-type isozyme (PGAM-MM) = assay: Inhibition test using purified PGAM isozymes, M-type; conditions: treatment with tetrathionic acid as PGAM inhibitor
Excerpt: as §10, §11

[1] = dilution rate 1/1 (control 183 U/L)
[2] = dilution rate 1/2 (control 91 U/L)
[3] = dilution rate 1/4 (control 46 U/L)
[4] = dilution rate 1/8 (control 22 U/L)

Structure (SMILES) | activity at 1900 µM (PGAM-B; [1]) | activity at 3800 µM (PGAM-B; [1]) | activity at 7600 µM (PGAM-B; [1]) | activity at 1900 µM (PGAM-B; [2]) | activity at 3800 µM (PGAM-B; [2]) | activity at 7600 µM (PGAM-B; [2]) | activity at 1900 µM (PGAM-B; [3]) | activity at 3800 µM (PGAM-B; [3]) | activity at 7600 µM (PGAM-B; [3]) | activity at 1900 µM (PGAM-B; [4]) | activity at 3800 µM (PGAM-B; [4]) | activity at 7600 µM (PGAM-B; [4]) | Effect on the B-type isozyme (in words) (PGAM-B; summary of Table 2) | activity at 1900 µM (PGAM-M; 5 min, PGAM-M standard (pooled serum base), dilution rate 1/8 (control 332 U/L), final concentration 1.9 mM, 5 min reaction, read-out: PGAM-M activity relative to 0 mM potassium tetrathionate (=100)) | activity at 3800 µM (PGAM-M; 5 min, PGAM-M standard (pooled serum base), dilution rate 1/8 (control 332 U/L), final concentration 3.8 mM, 5 min reaction, read-out: PGAM-M activity relative to 0 mM potassium tetrathionate (=100)) | activity at 7600 µM (PGAM-M; 5 min, PGAM-M standard (pooled serum base), dilution rate 1/8 (control 332 U/L), final concentration 7.6 mM, 5 min reaction, read-out: PGAM-M activity relative to 0 mM potassium tetrathionate (=100)) | Effect on the M-type isozyme (in words) (PGAM-M; summary of Table 2) | B-type isozyme activity lost (in words) (B-type isozyme (PGAM-BB)) | M-type isozyme activity lost (M-type isozyme (PGAM-MM))
O=S(=O)([O-])SSS(=O)(=O)[O-].[K+].[K+] [potassium tetrathionate] | 98% | 92% | 81% | 98% | 91% | 80% | 97% | 86% | 59% | 93% | 93% | 75% | no effect was observed | 0% | 0% | 0% | specifically inactivated |  | 
O=S(=O)(O)SSS(=O)(=O)O [tetrathionic acid] |  |  |  |  |  |  |  |  |  |  |  |  |  |  |  |  |  | hardly lost | ~100%
